Assay results: PMC10067956, “Pyrazole derivatives of pyridine and naphthyridine as proapoptotic agents in cervical and breast cancer cells” (Scientific Reports, 2023)
Where two headings read alike, the source gives them in different places.

Columns and labels:
HeLa cells [1] = experiment: Alkaline comet assay; format: cell-based; conditions: 5j 6.4 µM 24 h
Experimental: Comet assay is a sensitive method to determine DNA damage which was performed after some modifications in a published protocol. […] The cervical cancer (HeLa) cells were treated with IC50 value of potent compound 5j for 24 h. Cells were harvested, collected and centrifuged to obtain a pellet. Pelleted cells were re-suspended in media. Untreated cells were used as control cells. For the positive control, 2 × 10^4 cells were treated with 20 µM of freshly prepared hydrogen peroxide for 30 min. Slides were prepared by coating with 1% normal melting point agarose (NMPA) on one side and then dried. Samples (2 × 10^4 cells/sample) were re-suspended in 1 mL of PBS. In a tube, 0.4 mL cell suspension was mixed with 1.2 mL of 0.9% low melting point agarose (LMPA) and mixed thoroughly by pipetting. A cell suspension of 65 µL was laid on coated slide and evenly distributed by placing a coverslip over it. Slides were placed at − 20 °C for 10 min. Then the slides were placed at 4 °C in the dark in a lysis buffer of 100 mM EDTA, 10 mM Trizma base, 2.5 M sodium chloride, 10% DMSO and 1% Triton X-100 in distilled water with a pH of 10. After an overnight incubation, slides were washed with chilled distilled water. These slides were then placed in electrophoresis chamber (Wealtec, USA) having chilled (4 °C) alkali unwinding solution (300 mM sodium hydroxide and 1 mM EDTA in distilled water). Electrophoresis was carried out at an adjusted voltage (between 0.7 and 1.0 V/cm) for 35 min in an electrophoresis tank. Slides were then immersed in neutralization solution (0.4 M Trizma base in 800 mL water, pH 7.5) for 10 min in dark. Propidium iodide (20 µL of 0.01 mg/mL) was used as fluorescent dye to stain DNA. Slides were placed in dark at room temperature. After 10 min, images were captured using a fluorescence microscope (Nikon ECLIPSE Ni–U, Japan) at an excitation/emission wavelength of 493/632 nm. Microscopic images were analyzed using ImageJ (ij152-win-java8, National Institutes of Health, Bethesda, USA) and OpenComet (OpenComet_imagej_v1.3.1, USA) where the DNA content in the head and tail of the comets were automatically measured by the software. Results of three independent experiments were expressed as tail length ([…]), %DNA in comet tail and comet tail moment.

MCF-7 cells = experiment: MTT cell viability assay, MCF-7; format: cell-based; conditions: for inhibition at 100 µM: MCF7, 100 µM, read-out: %Inhibition at 100 µM, MCF-7 cell line; for IC50: read-out: IC50 (µM) ± SEM, MCF-7 cell line
Experimental: (§1) The anti-proliferative activity of the studied compounds was determined against breast (MCF-7) and cervical (HeLa) cancer cells by the MTT cell viability assay as described earlier[44],[45]. BHK-21 cells were used as non-cancerous cells to study the effect of these compounds on normal cells. Briefly, 1 × 10^4 cells/well were seeded in 96-well microtiter plate and placed in an incubator (Heracell™ VIOS 160i, Thermo-Fisher Scientific) set for 5% CO2 at 37 °C. The stock solutions of compounds were prepared at 10 mM concentration in DMSO. Initial working solutions were prepared in cell culture medium at 1 mM concentration. […] After 24 h, medium in each well was aspirated and cells were treated for 4 h with serum free medium containing 0.2 mg/mL MTT reagent. The solubilizing reagent (10% acidified sodium dodecyl sulfate in propanol in a 1:1 ratio) was added to solubilize formazan crystals. Plates were kept at 37 °C for 30 min and then placed on a gyratory shaker for few min for complete solubilization of formazan crystals. The optical density was measured at 570 nm by microplate reader and IC50 values were calculated from three independent experiments as previously reported.

HeLa cells [2] = experiment: MTT cell viability assay, HeLa; format: cell-based; conditions: 24 h; for inhibition at 100 µM: read-out: %Inhibition at 100 µM, HeLa cell line; for IC50: read-out: IC50 (µM) ± SEM, HeLa Cell Line
Experimental: as §1

BHK-21 cells = experiment: MTT cell viability assay, non-cancerous BHK-21; format: cell-based, Baby Hamster; conditions: 24 h, read-out: IC50 (µM) ± SEM, BHK-21 cell line
Experimental: as §1

Row | SMILES | inhibition at 100 µM (MCF-7 cells; Homo sapiens, 24 h) [%] | inhibition at 100 µM (HeLa cells [2]; Homo sapiens) [%] | IC50 (HeLa cells [2]; Homo sapiens) [µM] | IC50 (BHK-21 cells; Mesocricetus auratus) [µM] | further results
1 | OO [H2O2, Hydrogen Peroxide, reference compound] |  |  |  |  | %DNA in tail ± SD (HeLa cells [1]): 55.11 ± 0.68%; Tail length ± SD (HeLa cells [1]; H2O2 20 µM 30 min (positive control)): 84.14 ± 3.43 µM
2 | N#CC1=C(N)Nc2n[nH]cc2C12C(=O)Nc1ccc(OC(F)(F)F)cc12 (centres unmarked) [4g] | 15.2 | 38.6 |  |  | 
3 | Cc1ccc2nc(N)c3c(N)nc4n[nH]cc4c3c2c1 [5b] | 96.4 | 98.4 | 32.1 ± 1.14 | 126 ± 1.63 | IC50 (MCF-7 cells; Homo sapiens, MCF7, 24 h): 41.4 ± 0.47 µM
4 | Nc1nc2ccc(OC(F)(F)F)cc2c2c1c(N)nc1n[nH]cc12 [5g] | 31.4 | 61.3 |  |  | 
5 | Cc1[nH]nc2c1C1(C(=O)Nc3ccc(OC(F)(F)F)cc31)C(C#N)=C(N)N2 (centres unmarked) [4n] | 0.15 | 27.8 |  |  | 
6 | Nc1nc2ccc([N+](=O)[O-])cc2c2c1c(N)nc1n[nH]cc12 [5f] | 9.54 |  | 69.1 ± 0.99 | 101 ± 2.61 | 
7 | Cc1ccc2c(c1)C1(C(=O)N2)C(C#N)=C(N)Nc2n[nH]c(C)c21 (centres unmarked) [4i] | 1.42 | 39.7 |  |  | 
8 | Cc1[nH]nc2nc(N)c3c(N)nc4ccccc4c3c12 [5h] | 37.8 | 93.6 | 14.4 ± 1.21 | 31.4 ± 1.33 | 
9 | Cc1[nH]nc2nc(N)c3c(N)nc4ccc(Br)cc4c3c12 [5l] | 28.2 | 81.6 | 38.5 ± 0.63 | 152 ± 2.61 | 
10 | Cc1[nH]nc2c1C1(C(=O)Nc3ccc(Br)cc31)C(C#N)=C(N)N2 (centres unmarked) [4l] | 1.78 | 39.3 |  |  | 
11 | N#CC1=C(N)Nc2n[nH]cc2C12C(=O)Nc1ccccc12 (centres unmarked) [4a] | 28.2 | 34.5 |  |  | 
12 | N#CC1=C(N)Nc2n[nH]cc2C12C(=O)Nc1ccc([N+](=O)[O-])cc12 (centres unmarked) [4f] | 5.23 | 26.2 |  |  | 
13 | Nc1nc2ccc(Cl)cc2c2c1c(N)nc1n[nH]cc12 [5d] | 27.3 | 71.4 | 40.7 ± 1.42 | 166.8 ± 0.95 | 
14 | Nc1nc2ccc(F)cc2c2c1c(N)nc1n[nH]cc12 [5c] | 4.12 | 69.2 | 10.3 ± 0.51 | 42.4 ± 1.95 | 
15 | Nc1nc2ccc(Br)cc2c2c1c(N)nc1n[nH]cc12 [5e] | 96.8 | 98.3 | 30.2 ± 1.15 | 84.1 ± 3.31 | IC50 (MCF-7 cells; Homo sapiens, MCF7, 24 h): 18.6 ± 0.29 µM
16 | Cc1[nH]nc2c1C1(C(=O)Nc3ccccc31)C(C#N)=C(N)N2 (centres unmarked) [4h] | 2.38 | 5.08 |  |  | 
17 | Cc1[nH]nc2c1C1(C(=O)Nc3ccc(F)cc31)C(C#N)=C(N)N2 (centres unmarked) [4j] | 2.22 | 5.68 |  |  | 
18 | Cc1[nH]nc2nc(N)c3c(N)nc4ccc(OC(F)(F)F)cc4c3c12 [5n] | 10.5 | 63.2 | 32.7 ± 2.16 | 46.6 ± 1.03 | 
19 | Cc1ccc2c(c1)C1(C(=O)N2)C(C#N)=C(N)Nc2n[nH]cc21 (centres unmarked) [4b] | 1.86 | 45.9 |  |  | 
20 | Cc1ccc2nc(N)c3c(N)nc4n[nH]c(C)c4c3c2c1 [5i] | 58.2 | 63.5 | 61.9 ± 1.76 | 134 ± 1.71 | IC50 (MCF-7 cells; Homo sapiens, MCF7, 24 h): 54.7 ± 0.63 µM
21 | N#CC1=C(N)Nc2n[nH]cc2C12C(=O)Nc1ccc(Br)cc12 (centres unmarked) [4e] | 7.24 | 24.9 |  |  | 
22 | N#CC1=C(N)Nc2n[nH]cc2C12C(=O)Nc1ccc(Cl)cc12 (centres unmarked) [4d] | 18.9 |  | 51.6 ± 0.99 | 246 ± 6.71 | %Inhibition at 100 µM, HeLa cell line (HeLa cells [2]): 99.45%
23 | N#CC1=C(N)Nc2n[nH]cc2C12C(=O)Nc1ccc(F)cc12 (centres unmarked) [4c] | 26.8 | > 50 | 90.2 ± 2.18 | 49.2 ± 2.01 | %Inhibition at 100 µM, HeLa cell line (HeLa cells [2]): 57.80%
24 | Nc1nc2ccccc2c2c1c(N)nc1n[nH]cc12 [5a] | 46.4 | 97.9 | 58.91 ± 0.39 | 177 ± 6.11 | 
25 | Cc1[nH]nc2nc(N)c3c(N)nc4ccc([N+](=O)[O-])cc4c3c12 [5m] | 10.3 | 44.9 |  |  | 
26 | Cc1[nH]nc2c1C1(C(=O)Nc3ccc([N+](=O)[O-])cc31)C(C#N)=C(N)N2 (centres unmarked) [4m] | 23.3 | 22.7 |  |  | 
27 | N.N.[Cl][Pt][Cl] [Cisplatin, reference compound] |  |  |  |  | %Inhibition at 100 µM, MCF-7 cell line (MCF-7 cells; 100 µM, 24 h): 73.12%; IC50 (MCF-7 cells; 24 h): 6.22 ± 0.72 µM; %Inhibition at 100 µM, HeLa cell line (HeLa cells [2]): 98.63%; IC50 (HeLa cells [2]): 11.3 ± 0.78 µM; IC50 (BHK-21 cells): 24.7 ± 0.37 µM
28 | Cc1[nH]nc2c1C1(C(=O)Nc3ccc(Cl)cc31)C(C#N)=C(N)N2 (centres unmarked) [4k] | 11.9 | 3.84 |  |  | 
